The values below are quoted from earlier work in patent US10029078B2, “Pancreas perfusion apparatus, method for controlling same, and method for pancreas perfusion” (KOSEI ADVANCE CO., LTD., priority 2013, dated 2018).

Each structure is given as a SMILES string.

This data set deals with unresectable pancreatic cancer. The following applies: patients with unresectable pancreatic cancer, systemic chemotherapy.

Consider `Nc1ccn([C@@H]2O[C@H](CO)[C@@H](O)C2(F)F)c(=O)n1` [gemcitabine], for which the median survival time result was “approximately 6 months” and the response rate entry is listed as “approximately 10%”.
